Read-outs that look alike come from different tables or passages of the source.

The test system of experiment [1] is obstruction-released kidney of male SD rats. Put plainly: Obstruction release model after complete obstruction of unilateral ureter for 14 days (UUO/Release, Test Example 3). The class given is in vivo, rat. On the set-up: key to Suppressive Effect to Glomerular Lesion / Suppressive Effect to Lesion of Tubulointerstitial Tissue: ∘: available; Δ: somewhat available; x: not available. Particulars: for Suppressive Effect to Glomerular Lesion / Suppressive Effect to Lesion of Tubulointerstitial Tissue: Experimental Model of Rat: UUO/Release. The protocol: Obstruction Release Model after Complete Obstruction of Unilateral Ureter for 14 Days
Experimental models were prepared by a method devised and established by Ishibashi (Michio Ishibashi, et al.: The Japanese Journal of Nephrology, 42: 248, 2000) using male SD rats of 8-9 weeks age and about 280 g. Thus, the rat was laparotomized under anesthetization with ether and ureter was ligated with 7-0 Nylon at the height of the margin of lower pole of left kidney to close the abdomen. On the 14th day after obstruction, the obstruction was released and urinary passage was reconstructed using a cuff. Thus, after 14 days, the part of ligated obstructed ureter was resected, a polyethylene tube of 25 gages (manufactured by Nippon Sherwood) was used as a cuff and inserted into and retained at the lumen from the cut end of the lower normal ureter, then the cuff was also retained in the expanded upper ureter and each of them was ligated and fixed by 7-0 Nylon to reconstruct the urinary passage. At the same time, the right kidney at the opposite side was excised. After the release of the obstruction, body weight was measured, blood was collected on the 2nd day, 5th day and 7th day from the release to measure serum creatinine, then the rat was sacrificed under anesthetization and the left obstruction-released kidney was excised. With regard to the excised kidney, there were carried out measurement of weight of the kidney and pathological test for the kidney.
An in vivo biological test was carried out for the γ-lactone derivatives according to the present invention using the above models. With regard to the test compound, bulk powder of the test compound was dissolved in an aseptic physiological saline together with gum arabic and the final concentration of gum arabic was 5%(vol/vol). The concentration of the test compound 30 mg/ml was suspended in 5% gum arabic-saline solution. The preparation was subcutaneously injected at the dose of 30 mg/kg every day throughout the experiment. With regard to the test compound, there were used (9-1), (4-2) and (7-3) as the compounds of group I suppressing the SPFC production by allo-MLC stimulation, i.e., the compounds which selectively suppress the induction of effector macrophage in the presence of allo-MLC while there was used (3-2) as the compound of group II suppressing the SPFC production by LPS stimulation, i.e., the compounds which selectively suppress the induction of effector macrophage in the presence of LPS.
In the Table, “functional classification” of the compound means the above group I, group II and group III. “Compound” means the compound bearing each of the above-mentioned compound numbers. The fact whether glomerular lesion was suppressed was judged by the ameriolation of the lesions such as thickness of wall of Bowman's capsule, hyperplasia of mesangial cells and glomerular sclerosis. The fact whether lesion of tubulointerstitial tissue was suppressed was judged by the ameriolation of the lesions such as thickness of basement membrane of tubules, cellular infiltration and fibrosis of interstitial tissue. In the table, “control” is the result when the same test as above was carried out using 5% gum arabic only which is a solvent.
In order to further confirm whether the preventive and therapeutic effect of the γ-lactone derivatives of the present invention to the target cell damage is selective, (7-3) of the group I and (6-1) of the group II were used as test compounds and they were subcutaneously injected at the dose of 30 mg/kg every day and compared with the control group. With regard to the control group, only 5% gum arabic which is a solvent was used and the same test as above was carried out.

In experiment [2] the test system is induction of effector macrophage by contact of human PBMC with lipopolysaccharide. Put plainly: SPFC production by LPS stimulation (Test Example 1). The class given is cell-based. The protocol:
A suppressive effect of the test compound to effector macrophage induction was investigated in vitro by an induction and production system of spontaneous plaque-forming cell (SPEC) mentioned in M. Ishibashi, S. Jiang, Y. Kokado, S. Takahara, T. Sonoda: Immunopharmacologic effects of immunosuppressive agents explored by a new effector generation assay. Transplant Proc., 21: 1854-1858, 1989.
Heparin-added peripheral blood (40 ml) was collected from a healthy person and the same amount of EDTA-added physiological saline was added. PBMC were obtained by a specific gravity centrifugal method using Ficoll-Hypaque (manufactured by Pharmacia Fine Chemicals). Self-plasma was added thereto and allowed to stand at 37° C. for 10 minutes and platelets were removed by a low-speed centrifugal separation. RPMI 1640 liquid containing 15 μg/ml of gentamicin and 2 mM L-glutamine was used for washing the PBMC. Concentration of the PBMC was adjusted to 2×10^6 cells/ml using the same liquid.
Each 200 μl of a solution containing 2×10^6 PBMC/ml prepared in the step 1 were added to each well of a micro test plate, lipopolysaccharide (hereinafter, abbreviated as LPS) was diluted with the RPMI 1640 liquid to make the final concentration 80 μg/ml and the said LPS solution was added to each well of the 200 μl-micro test plate. Further, each 50 μl of human serum of type AB were added so as to make the concentration 10% by weight. Two such micro test plates were prepared.
After that, to the above two micro test plates was added a solution where the test compound was diluted with 1% by weight of DMSO so as to make the concentration of the test compound 1 μM. Similarly were prepared each two micro test plates where the final concentrations of the test compound were 0.1 μM, 0.01 μM and 0.001 μM.
The culture liquid prepared as such was incubated for 6 days at 37° C. in 5% CO2.
The effector macrophage induced after the incubation was all recovered using a rubber-policeman (spatula made of rubber). A Hanks solution containing 5 μg/ml of gentamicin was used for washing and, using the said solution, there was prepared a solution where the concentration of the induced effector macrophage was 2×10^6 per ml.
With regard to autologous erythrocytes, those which were preserved at 4° C. in a phosphate physiological saline (hereinafter, abbreviated as PBS) to which 0.1% by weight of AB serum and autologous erythrocytes obtained from PBMC separation were used were used. The preserved autologous erythrocytes were washed for three times with a Hanks solution to which no serum was added and made into a solution of 4% by weight concentration using the said Hanks solution. Poly-L-lysine was added to a Terasaki plate and washed with PBS every 20 minutes at 37° C., the above-mentioned autologous erythrocyte solution was added thereto immediately, the mixture was allowed to stand at 37° C. for 30 minutes and the erythrocytes which were not adhered to the plate were removed to prepare a Terasaki plate to which self-erythrocytes in a monolayer were adhered.
A Hanks solution (4 μl) was added to the said Terasaki plate, 4 μl of a solution containing the induced effector macrophage obtained in the step 3 were added thereto and the mixture was allowed to stand at 37° C. for 2 hours. After completion of the reaction, it was fixed by formalin. Numbers of the produced SPFC which were adhered or phagocytized were measured.
A mean SPFC production number was calculated from the measured values of SPFC production when the concentration of the test compound was the same. SPFC production number per 1×10^6 of the induced effector macrophage was calculated and, from the recovered induced effector macrophage numbers, total SPFC production amount (S2) was calculated.
As a control, no test compound was added and the same operation as above was carried out to calculate the total SPFC production amount (S1). […]

The test system of experiment [3] is induction of effector macrophage by contact of human PBMC with mitomycin-treated human PBMC (allo-MLC). The experiment can be described thus: SPFC production by allo-MLC stimulation (Test Example 2). It is filed as cell-based. Particulars: for functional group (selective suppression of SPFC production by allo-MLC or LPS stimulation): summary of Table 1.
The mark [4] stands for this setting: 30 mg/kg subcutaneously every day.
Where [5] appears, read: 30 mg/kg subcutaneously every day, Table 2.
Where [6] appears, read: 144 h, human PBMC with LPS 80 μg/ml, incubated 6 days, Table 1, read-out: SPFC Production Inhibiting Concentration by LPS Stimulation (μM: IC50).
The mark [7] stands for this setting: Homo sapiens, Table 5, read-out: Inhibiting Concentration for SPEC Production by LPS Stimulation (μM: IC50).
[8] abbreviates: 144 h, human PBMC with mitomycin-treated human PBMC, incubated 6 days, Table 1, read-out: SPFC Production Inhibiting Concentration by all-MLC Stimulation (μM: IC50).
Setting [9] is: Homo sapiens, Table 5, read-out: Inhibiting Concentration for SPEC Production by allo-MLC Stimulation (μM: IC50).

In the case of `CC(OC(=O)[C@@]1(Oc2ccc(F)cc2)CCC(=O)O1)c1ccc2ccccc2c1` (mixture of isomers) [(3-2), (RS)-(+)-α-methyl-2-naphthalene-methyl 2-(4-fluorophenoxy)-5-oxotetrahydrofuran-2-carboxylate], in experiment [1] (setting [4]), the “selectivity of the suppressive effect on renal lesions” value is given as “selective suppressive effect”, the “suppression of glomerular lesion” value is “suppressed the glomerular lesion only” and the “suppression of lesion of tubulointerstitial tissue” value is on record as “did not suppress”. Besides, in experiment [1] (setting [5]), the “Rate of Cases where Glomerular Lesion was Suppressed” value is reported as 100% (5/5), the “Serum Creatinine level (mg/dl) on the 7th Day from Release of Obstruction” value was found to be 2.0 ± 0.4 mg/dL and the “Weight of Kidney (g) on the 7th Day from Release of Obstruction” value was 4.36 ± 0.95 g. In addition, in experiment [1], the “Suppressive Effect to Glomerular Lesion” value is recorded as “∘” and the “Suppressive Effect to Lesion of Tubulointerstitial Tissue” value was “x”. The IC50 in experiment [2] (setting [6]) came to 1 µM. Besides, the IC50 in experiment [2] (setting [7]) was found to be 1 µM. The IC50 in experiment [3] (setting [8]) is above 1 µM. The IC50 in experiment [3] (setting [9]) is above 1 µM. Besides, the “functional group (selective suppression of SPFC production by allo-MLC or LPS stimulation)” value in experiment [3] is “group II”.

Take `CC(OC(=O)[C@]1(Oc2ccc(F)cc2)CCC(=O)O1)c1ccc2ccccc2c1` (mixture of isomers) [(4-2), (RS)-(+)-α-methyl-2-naphthalene-methyl 2-(4-fluorophenoxy)-5-oxotetrahydrofuran-2-carboxylate]: the “selectivity of the suppressive effect on renal lesions” value in experiment [1] (setting [4]) is recorded as “selective suppressive effect”. In experiment [1] (setting [5]), the “Rate of Cases where Glomerular Lesion was Suppressed” value was 50% (2/4), the “Rate of Cases where tubulointerstitial Lesion was Suppressed” value was 100% (4/4), the “Serum Creatinine level (mg/dl) on the 7th Day from Release of Obstruction” value turned out to be 2.7 ± 0.3 mg/dL and the “Weight of Kidney (g) on the 7th Day from Release of Obstruction” value was determined as 3.94 ± 0.32 g. For the same compound, in experiment [1], the “Suppressive Effect to Glomerular Lesion” value is “Δ” and the “Suppressive Effect to Lesion of Tubulointerstitial Tissue” value is reported as “∘”. For the same compound, the IC50 in experiment [2] (setting [6]) was above 1 µM. Further, the IC50 in experiment [2] (setting [7]) is above 1 µM. For the same compound, the IC50 in experiment [3] (setting [8]) came out at 0.01 µM. Besides, in experiment [3] (setting [9]), the IC50 stood at 0.01 µM. Also, in experiment [3], the “functional group (selective suppression of SPFC production by allo-MLC or LPS stimulation)” value is recorded as “group I”.

On to `O=C1CCC(Cc2ccc(F)cc2)(C(=O)O)O1` (stereo not shown) [(5-2), 2-(4-fluorobenzyl)-5-oxo-tetrahydrofuran-2-carboxylic Acid], for which the IC50 is 0.01 µM in experiment [2] (setting [6]) and 0.1 µM in experiment [3] (setting [8]). Also, the “functional group (selective suppression of SPFC production by allo-MLC or LPS stimulation)” value in experiment [3] is on record as “group II”.

As to `O=C1CCC(Cc2ccccc2)(C(=O)OCc2ccccc2)O1` (stereo not shown) [(5-4), Benzyl 2-benzyl-5-oxo-tetrahydrofuran-2-carboxylate], the IC50 in experiment [2] (setting [6]) was 1 µM; in experiment [3] (setting [8]), 0.01 µM. Besides, the “functional group (selective suppression of SPFC production by allo-MLC or LPS stimulation)” value in experiment [3] was “group I”.

For the compound `N#CC1(C(=O)OCc2ccccc2)CCC(=O)O1` (stereo not shown) [(6-3), Benzyl 2-cyano-5-oxotetrahydrofuran-2-carboxylate], the results for the IC50 in experiment [2] (setting [6]) and in experiment [3] (setting [8]) were 0.001 µM and 0.1 µM, respectively. The “functional group (selective suppression of SPFC production by allo-MLC or LPS stimulation)” value in experiment [3] was “group II”.

As for `O=C1OC(O)(C(=O)OCc2ccccc2)c2ccccc21` (stereo not shown) [(7-1), Benzyl 1-hydroxy-3-oxo-1,3-dihydroisobenzofuran-1-carboxylate], the IC50 in experiment [2] (setting [6]) came to 1 µM; in experiment [3] (setting [8]) it was 0.1 µM. In experiment [3], the “functional group (selective suppression of SPFC production by allo-MLC or LPS stimulation)” value is reported as “group I”.

Take `O=C1OC(F)(C(=O)OCc2ccccc2)c2ccccc21` (stereo not shown) [(7-2), Benzyl 1-fluoro-3-oxo-1,3-dihydro-isobenzofuran-1-carboxylate]: the IC50 was 0.1 µM in experiment [2] (setting [6]) and above 1 µM in experiment [3] (setting [8]). Further, the “functional group (selective suppression of SPFC production by allo-MLC or LPS stimulation)” value in experiment [3] was “group II”.

Consider `O=C1OC(Oc2ccc(F)cc2)(C(=O)OCc2ccccc2)c2ccccc21` (stereo not shown) [(7-5), Benzyl 1-(4-fluorophenoxy)-3-oxo-1,3-dihydroisobenzofuran-1-carboxylate], for which the IC50 in experiment [2] (setting [6]) is above 1 µM; in experiment [3] (setting [8]), 0.01 µM. Besides, in experiment [3], the “functional group (selective suppression of SPFC production by allo-MLC or LPS stimulation)” value was “group I”.

In the case of `O=C1OC(Oc2ccc(F)cc2)(C(=O)O)c2ccccc21` (stereo not shown) [(7-6), 1-(4-fluorophenoxy)-3-oxo-1,3-dihydro-isobenzofuran-1-carboxylic Acid], the values for the IC50 in experiment [2] (setting [6]) and in experiment [3] (setting [8]) were 0.01 µM and above 1 µM, respectively. Also, the “functional group (selective suppression of SPFC production by allo-MLC or LPS stimulation)” value in experiment [3] is recorded as “group II”.

With `O=C(O)C(=O)c1ccccc1C(=O)O` [(7-7)], the IC50 in experiment [2] (setting [6]) was 0.01 µM; in experiment [3] (setting [8]), above 1 µM. In addition, the “functional group (selective suppression of SPFC production by allo-MLC or LPS stimulation)” value in experiment [3] was “group II”.

Take `O=C1CC[C@@](Oc2ccc(F)cc2)(C(=O)O)O1` [Compound (1), (−)-2-(4-fluorophenoxy)-5-oxotetrahydrofuran-2-carboxylic Acid]: the IC50 in experiment [2] (setting [6]) was above 1 µM; in experiment [3] (setting [8]), 0.01 µM. Also, the “functional group (selective suppression of SPFC production by allo-MLC or LPS stimulation)” value in experiment [3] is on record as “group I”.
